pIC50: −log10 of the molar value. Counter-ions that a name gives are not always drawn.
What was measured:
Solanum = test: Herbicidal activity, water, pre-emergence; format: in vivo; settings: read-out: Herbicidal activity, Solanum
Description: (§1) Herbicidal activity is determined using standard methods.
(§2) Substances 1 to 8 listed on page 5 are again investigated.

Lepidium = test: Herbicidal activity, water, pre-emergence; format: in vivo; settings: read-out: Herbicidal activity, Lepidium
Description: as §1, §2

Echinochloa = test: Herbicidal activity, water, pre-emergence; format: in vivo; settings: read-out: Herbicidal activity, Echinochloa
Description: as §1, §2

Rice = test: Herbicidal activity, water, pre-emergence; format: in vivo; settings: Oryza sativa, read-out: Herbicidal activity, Rice
Description: as §1, §2

[1] = molecular target: T1, DOXP reductoisomerase from Helicobacter pylori (Helicobacter pylori, UniProt P56139); test: DOXP reductoisomerase inhibition (NADPH oxidation at 365 nm); format: biochemical
T1 construct: made in house; host or cells: Helicobacter pylori (so in the source)
T1 sequence (P56139 1-368): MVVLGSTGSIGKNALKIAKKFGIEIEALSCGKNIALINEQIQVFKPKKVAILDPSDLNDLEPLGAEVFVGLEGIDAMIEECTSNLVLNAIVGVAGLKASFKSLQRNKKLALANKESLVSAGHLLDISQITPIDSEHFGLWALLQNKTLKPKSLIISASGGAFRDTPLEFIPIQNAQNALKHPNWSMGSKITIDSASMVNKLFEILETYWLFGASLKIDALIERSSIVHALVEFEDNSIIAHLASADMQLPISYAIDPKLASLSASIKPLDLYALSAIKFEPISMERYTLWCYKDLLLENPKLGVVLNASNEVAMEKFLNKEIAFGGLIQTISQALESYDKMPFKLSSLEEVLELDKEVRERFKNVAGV
Description: The DOXP reductoisomerase of Helicobacter pylori was expressed as a recombinant protein in Helicobacter pylori. The activity of DOXP reductoisomerase was determined in a batch containing 100 mM tris-HCl (pH=7.5), 1 mM MnCl2, 0.3 mM NADPH and 1 mM DOXP.
The oxidation of NADPH was here measured at 365 nm in a spectrophotometer. The inhibition studies were performed by measuring the activity of DOXP reductoisomerase in the presence of compounds 1 to 8 (see page 5) at various concentrations between 0. 1 and 100 μmol l^−1.

Avena fatua [2] = test: Herbicidal activity, soil, post-emergence; format: in vivo; settings: read-out: Herbicidal activity, Avena fatua
Description: as §1, §2

Amaranthus retroflexus [3] = test: Herbicidal activity, soil, post-emergence; format: in vivo; settings: read-out: Herbicidal activity, Amaranthus retroflexus
Description: as §1, §2

Xanthium strumarium [4] = test: Herbicidal activity, soil, post-emergence; format: in vivo; settings: read-out: Herbicidal activity, Xanthium strumarium
Description: as §1, §2

Galium aperine [5] = test: Herbicidal activity, soil, post-emergence; format: in vivo; settings: read-out: Herbicidal activity, Galium aperine
Description: as §1, §2

Cyperus esculentus [6] = test: Herbicidal activity, soil, post-emergence; format: in vivo; settings: read-out: Herbicidal activity, Cyperus esculentus
Description: as §1, §2

Zea mays [7] = test: Herbicidal activity, soil, post-emergence; format: in vivo; settings: read-out: Herbicidal activity, Zea mays
Description: as §1, §2

Alopecurus myosuroides [8] = test: Herbicidal activity, soil, post-emergence; format: in vivo; settings: read-out: Herbicidal activity, Alopecurus myosuroides
Description: as §1, §2

Sinapis arvensis [9] = test: Herbicidal activity, soil, post-emergence; format: in vivo; settings: Mutarda arvensis, read-out: Herbicidal activity, Sinapis arvensis
Description: as §1, §2

Setaria viridis [10] = test: Herbicidal activity, soil, post-emergence; format: in vivo; settings: read-out: Herbicidal activity, Setaria viridis
Description: as §1, §2

Abutilon theophrasti [11] = test: Herbicidal activity, soil, post-emergence; format: in vivo; settings: read-out: Herbicidal activity, Abutilon theophrasti
Description: as §1, §2

Beta vulgaris [12] = test: Herbicidal activity, soil, post-emergence; format: in vivo; settings: read-out: Herbicidal activity, Beta vulgaris
Description: as §1, §2

Avena fatua [13] = test: Herbicidal activity, soil, pre-emergence; format: in vivo; settings: read-out: Herbicidal activity, Avena fatua
Description: as §1, §2

Amaranthus retroflexus [14] = test: Herbicidal activity, soil, pre-emergence; format: in vivo; settings: read-out: Herbicidal activity, Amaranthus retroflexus
Description: as §1, §2

Xanthium strumarium [15] = test: Herbicidal activity, soil, pre-emergence; format: in vivo; settings: read-out: Herbicidal activity, Xanthium strumarium
Description: as §1, §2

Galium aperine [16] = test: Herbicidal activity, soil, pre-emergence; format: in vivo; settings: read-out: Herbicidal activity, Galium aperine
Description: as §1, §2

Cyperus esculentus [17] = test: Herbicidal activity, soil, pre-emergence; format: in vivo; settings: read-out: Herbicidal activity, Cyperus esculentus
Description: as §1, §2

Zea mays [18] = test: Herbicidal activity, soil, pre-emergence; format: in vivo; settings: read-out: Herbicidal activity, Zea mays
Description: as §1, §2

Alopecurus myosuroides [19] = test: Herbicidal activity, soil, pre-emergence; format: in vivo; settings: read-out: Herbicidal activity, Alopecurus myosuroides
Description: as §1, §2

Sinapis arvensis [20] = test: Herbicidal activity, soil, pre-emergence; format: in vivo; settings: Mutarda arvensis, read-out: Herbicidal activity, Sinapis arvensis
Description: as §1, §2

Setaria viridis [21] = test: Herbicidal activity, soil, pre-emergence; format: in vivo; settings: read-out: Herbicidal activity, Setaria viridis
Description: as §1, §2

Abutilon theophrasti [22] = test: Herbicidal activity, soil, pre-emergence; format: in vivo; settings: read-out: Herbicidal activity, Abutilon theophrasti
Description: as §1, §2

Beta vulgaris [23] = test: Herbicidal activity, soil, pre-emergence; format: in vivo; settings: read-out: Herbicidal activity, Beta vulgaris
Description: as §1, §2

CP(=O)(O)C(O)CNCN(O)C(=O)c1ccco1 (stereo not drawn) [Compound 5, 2-(N-2-Furanoyl-N-hydroxy-aminomethyl)amino-1-hydroxyethylmethylphosphinic acid, sodium salt]
pest or weed control at 4000 g/ha (Solanum): 0%
pest or weed control at 4000 g/ha (Lepidium): 40%
pest or weed control at 4000 g/ha (Echinochloa): 80%
plant injury at 4000 g/ha (Rice): 40%
pIC50 [1]: 6.89
pest or weed control at 2000 g/ha (Avena fatua [2]): 80%
pest or weed control at 2000 g/ha (Amaranthus retroflexus [3]): 30%
pest or weed control at 2000 g/ha (Xanthium strumarium [4]): 60%
pest or weed control at 2000 g/ha (Galium aperine [5]): 80%
pest or weed control at 2000 g/ha (Cyperus esculentus [6]): 0%
plant injury at 2000 g/ha (Zea mays [7]): 80%
pest or weed control at 2000 g/ha (Alopecurus myosuroides [8]): 70%
pest or weed control at 2000 g/ha (Sinapis arvensis [9]): 90%
pest or weed control at 2000 g/ha (Setaria viridis [10]): 95%
pest or weed control at 2000 g/ha (Abutilon theophrasti [11]): 40%
plant injury at 2000 g/ha (Beta vulgaris [12]): 40%
pest or weed control at 2000 g/ha (Avena fatua [13]): 0%
pest or weed control at 2000 g/ha (Amaranthus retroflexus [14]): 0%
pest or weed control at 2000 g/ha (Xanthium strumarium [15]): 0%
pest or weed control at 2000 g/ha (Galium aperine [16]): 0%
pest or weed control at 2000 g/ha (Cyperus esculentus [17]): 0%
plant injury at 2000 g/ha (Zea mays [18]): 0%
pest or weed control at 2000 g/ha (Alopecurus myosuroides [19]): 50%
pest or weed control at 2000 g/ha (Sinapis arvensis [20]): 50%
pest or weed control at 2000 g/ha (Setaria viridis [21]): 0%
pest or weed control at 2000 g/ha (Abutilon theophrasti [22]): 0%
plant injury at 2000 g/ha (Beta vulgaris [23]): 30%

O=CN(O)CNCP(=O)(O)O [Compound 8]
pest or weed control at 2000 g/ha (Solanum): 30%
pest or weed control at 2000 g/ha (Lepidium): 30%
pest or weed control at 2000 g/ha (Echinochloa): 40%
plant injury at 2000 g/ha (Rice): 30%
pIC50 [1]: 7.22
pest or weed control at 1000 g/ha (Avena fatua [2]): 80%
pest or weed control at 1000 g/ha (Amaranthus retroflexus [3]): 50%
pest or weed control at 1000 g/ha (Xanthium strumarium [4]): 90%
pest or weed control at 1000 g/ha (Galium aperine [5]): 70%
pest or weed control at 1000 g/ha (Cyperus esculentus [6]): 0%
plant injury at 1000 g/ha (Zea mays [7]): 70%
pest or weed control at 1000 g/ha (Alopecurus myosuroides [8]): 80%
pest or weed control at 1000 g/ha (Sinapis arvensis [9]): 70%
pest or weed control at 1000 g/ha (Setaria viridis [10]): 90%
pest or weed control at 1000 g/ha (Abutilon theophrasti [11]): 50%
plant injury at 1000 g/ha (Beta vulgaris [12]): 50%
pest or weed control at 1000 g/ha (Avena fatua [13]): 30%
pest or weed control at 1000 g/ha (Amaranthus retroflexus [14]): 20%
pest or weed control at 1000 g/ha (Xanthium strumarium [15]): 0%
pest or weed control at 1000 g/ha (Galium aperine [16]): 0%
pest or weed control at 1000 g/ha (Cyperus esculentus [17]): 0%
plant injury at 1000 g/ha (Zea mays [18]): 30%
pest or weed control at 1000 g/ha (Alopecurus myosuroides [19]): 30%
pest or weed control at 1000 g/ha (Sinapis arvensis [20]): 30%
pest or weed control at 1000 g/ha (Setaria viridis [21]): 0%
pest or weed control at 1000 g/ha (Abutilon theophrasti [22]): 0%
plant injury at 1000 g/ha (Beta vulgaris [23]): 40%

CN(CN(O)C(=O)C1CCCCC1)CP(C)(=O)O [Compound 3, N-((N-Cyclohexanoyl-N-hydroxy)aminomethyl)-N-methyl(aminomethylphosphinic acid, sodium salt]
pest or weed control at 4000 g/ha (Solanum): 0%
pest or weed control at 4000 g/ha (Lepidium): 50%
pest or weed control at 4000 g/ha (Echinochloa): 50%
plant injury at 4000 g/ha (Rice): 40%
pIC50 [1]: 6.77
pest or weed control at 2000 g/ha (Avena fatua [2]): 70%
pest or weed control at 2000 g/ha (Amaranthus retroflexus [3]): 60%
pest or weed control at 2000 g/ha (Xanthium strumarium [4]): 60%
pest or weed control at 2000 g/ha (Galium aperine [5]): 60%
pest or weed control at 2000 g/ha (Cyperus esculentus [6]): 0%
plant injury at 2000 g/ha (Zea mays [7]): 70%
pest or weed control at 2000 g/ha (Alopecurus myosuroides [8]): 60%
pest or weed control at 2000 g/ha (Sinapis arvensis [9]): 80%
pest or weed control at 2000 g/ha (Setaria viridis [10]): 70%
pest or weed control at 2000 g/ha (Abutilon theophrasti [11]): 60%
plant injury at 2000 g/ha (Beta vulgaris [12]): 60%
pest or weed control at 2000 g/ha (Avena fatua [13]): 0%
pest or weed control at 2000 g/ha (Amaranthus retroflexus [14]): 0%
pest or weed control at 2000 g/ha (Xanthium strumarium [15]): 0%
pest or weed control at 2000 g/ha (Galium aperine [16]): 0%
pest or weed control at 2000 g/ha (Cyperus esculentus [17]): 0%
plant injury at 2000 g/ha (Zea mays [18]): 0%
pest or weed control at 2000 g/ha (Alopecurus myosuroides [19]): 30%
pest or weed control at 2000 g/ha (Sinapis arvensis [20]): 30%
pest or weed control at 2000 g/ha (Setaria viridis [21]): 0%
pest or weed control at 2000 g/ha (Abutilon theophrasti [22]): 0%
plant injury at 2000 g/ha (Beta vulgaris [23]): 30%

CP(=O)(CNCN(O)C(=O)CCCN1CCOCC1)Oc1ccccc1 (stereo not drawn) [Compound 4, N-[(4-N-Morpholinobutanoyl-N-hydroxy)aminomethyl]aminomethyl(methyl)phosphinic acid phenyl ester]
pest or weed control at 4000 g/ha (Solanum): 30%
pest or weed control at 4000 g/ha (Lepidium): 40%
pest or weed control at 4000 g/ha (Echinochloa): 70%
plant injury at 4000 g/ha (Rice): 30%
pIC50 [1]: 6.96
pest or weed control at 2000 g/ha (Avena fatua [2]): 70%
pest or weed control at 2000 g/ha (Amaranthus retroflexus [3]): 40%
pest or weed control at 2000 g/ha (Xanthium strumarium [4]): 90%
pest or weed control at 2000 g/ha (Galium aperine [5]): 70%
pest or weed control at 2000 g/ha (Cyperus esculentus [6]): 0%
plant injury at 2000 g/ha (Zea mays [7]): 70%
pest or weed control at 2000 g/ha (Alopecurus myosuroides [8]): 70%
pest or weed control at 2000 g/ha (Sinapis arvensis [9]): 80%
pest or weed control at 2000 g/ha (Setaria viridis [10]): 90%
pest or weed control at 2000 g/ha (Abutilon theophrasti [11]): 50%
plant injury at 2000 g/ha (Beta vulgaris [12]): 50%
pest or weed control at 2000 g/ha (Avena fatua [13]): 60%
pest or weed control at 2000 g/ha (Amaranthus retroflexus [14]): 20%
pest or weed control at 2000 g/ha (Xanthium strumarium [15]): 0%
pest or weed control at 2000 g/ha (Galium aperine [16]): 0%
pest or weed control at 2000 g/ha (Cyperus esculentus [17]): 0%
plant injury at 2000 g/ha (Zea mays [18]): 30%
pest or weed control at 2000 g/ha (Alopecurus myosuroides [19]): 30%
pest or weed control at 2000 g/ha (Sinapis arvensis [20]): 70%
pest or weed control at 2000 g/ha (Setaria viridis [21]): 0%
pest or weed control at 2000 g/ha (Abutilon theophrasti [22]): 0%
plant injury at 2000 g/ha (Beta vulgaris [23]): 60%

Source: US20030144249A1, “Use of organophosphorous compounds for producing a medicament for treating infections” (priority 2000, published 2003)
